This is an account of results in ChEMBL document CHEMBL4190341, “Synthesis and bioevaluation of 1-phenyl-pyrazole-4-carboxylic acid derivatives as potent xanthine oxidoreductase inhibitors” (Eur J Med Chem, 2017).

Activity calls are given as the source filed them. The rule behind the calls is not given here.

The target in data set [1] is T1, Xanthine dehydrogenase/oxidase (Bos taurus, UniProt P80457). The data set can be described thus: Inhibition of bovine milk xanthine oxidoreductase pre-incubated for 3 mins followed xanthine substrate addition and measured every 1 mins for 10 mins by spectrophotometry.
T1 sequence (P80457 whole entry): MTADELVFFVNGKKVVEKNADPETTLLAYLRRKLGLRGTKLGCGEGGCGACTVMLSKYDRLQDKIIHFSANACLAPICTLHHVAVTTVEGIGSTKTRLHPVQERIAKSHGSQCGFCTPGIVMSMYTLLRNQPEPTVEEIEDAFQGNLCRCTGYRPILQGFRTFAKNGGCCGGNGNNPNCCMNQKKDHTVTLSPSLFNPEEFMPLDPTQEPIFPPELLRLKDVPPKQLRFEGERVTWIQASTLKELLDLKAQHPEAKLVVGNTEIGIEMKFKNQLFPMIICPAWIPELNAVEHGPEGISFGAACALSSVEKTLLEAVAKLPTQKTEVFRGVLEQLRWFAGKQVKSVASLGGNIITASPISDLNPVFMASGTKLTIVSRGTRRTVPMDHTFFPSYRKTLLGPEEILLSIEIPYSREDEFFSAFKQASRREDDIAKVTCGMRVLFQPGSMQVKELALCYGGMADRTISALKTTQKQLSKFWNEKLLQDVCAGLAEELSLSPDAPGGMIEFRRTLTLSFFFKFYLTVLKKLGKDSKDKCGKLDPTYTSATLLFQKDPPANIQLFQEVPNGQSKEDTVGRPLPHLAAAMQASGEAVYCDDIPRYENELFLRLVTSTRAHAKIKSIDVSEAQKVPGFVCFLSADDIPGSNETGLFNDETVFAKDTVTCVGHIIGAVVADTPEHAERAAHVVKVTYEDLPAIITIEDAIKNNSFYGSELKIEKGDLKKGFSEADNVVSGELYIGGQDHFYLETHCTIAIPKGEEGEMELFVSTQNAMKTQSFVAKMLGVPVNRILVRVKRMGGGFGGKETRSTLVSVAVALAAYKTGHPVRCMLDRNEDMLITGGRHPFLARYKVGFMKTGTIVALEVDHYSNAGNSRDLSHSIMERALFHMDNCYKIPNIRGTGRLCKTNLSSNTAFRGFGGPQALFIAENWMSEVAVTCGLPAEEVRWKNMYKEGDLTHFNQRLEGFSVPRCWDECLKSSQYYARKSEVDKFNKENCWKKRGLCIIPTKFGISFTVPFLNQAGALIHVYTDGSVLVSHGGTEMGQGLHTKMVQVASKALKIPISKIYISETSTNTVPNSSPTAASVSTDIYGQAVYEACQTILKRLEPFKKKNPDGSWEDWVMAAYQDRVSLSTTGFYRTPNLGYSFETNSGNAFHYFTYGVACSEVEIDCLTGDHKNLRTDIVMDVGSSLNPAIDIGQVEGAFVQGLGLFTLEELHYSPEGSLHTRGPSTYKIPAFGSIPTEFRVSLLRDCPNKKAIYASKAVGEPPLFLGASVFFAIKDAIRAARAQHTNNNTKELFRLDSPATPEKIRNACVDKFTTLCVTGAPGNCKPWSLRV
Data set [2] is described as follows: Tmax in rat at 3 mg/kg, po measured during 5 mins to 24 hrs post dose by LC-MS/MS method. The class given is ADME, organism-based. The settings on record: in vivo.
Data set [3] concerns Mus musculus. Description: Hypouricemic effect in ICR mouse model of potassium oxonate and hypoxanthine-induced acute hyperuricemia assessed as reduction in serum uric acids level at 5 mg/kg, po dosed 1 hr after potassium oxonate and hypoxanthine challenge and measured after 1 hr post dose. It counts as functional, organism-based.
Data set [4] relates to Mus musculus. The data set can be described thus: Hypouricemic effect in ICR mouse model of potassium oxonate and hypoxanthine-induced acute hyperuricemia assessed as reduction in serum uric acids level at 5 mg/kg, po dosed 1 hr after potassium oxonate and hypoxanthine challenge and measured after 1 to 4 hrs post dose. It counts as functional, organism-based.
Data set [5] has as its target T1, Xanthine dehydrogenase/oxidase. The data set can be described thus: Mixed type inhibition of bovine milk xanthine oxidoreductase pre-incubated for 3 mins using varying xanthine substrate levels and measured every 1 mins for 10 mins by spectrophotometry based Lineweaver-Burk plot. To be noted: cattle.
A short description of data set [6]: Half life in rat at 10 mg/kg, po measured during 5 mins to 24 hrs post dose by LC-MS/MS method. The class given is ADME, organism-based. The settings on record: in vivo.
Data set [7] can be described thus: Tmax in rat at 10 mg/kg, po measured during 5 mins to 24 hrs post dose by LC-MS/MS method. The class given is ADME, organism-based. To be noted: in vivo.
The nature of data set [8]: Cmax in rat at 10 mg/kg, po measured during 5 mins to 24 hrs post dose by LC-MS/MS method. The class given is ADME, organism-based. Details: dose 10 mg/kg, route oral. The settings on record: in vivo.
A further data set relates to Rattus norvegicus. The data set can be described thus: AUC (0 to infinity) in rat at 10 mg/kg, po measured during 5 mins to 24 hrs post dose by LC-MS/MS method. It counts as ADME, organism-based. Also noted: dose 10 mg/kg, time infinity, route oral. To be noted: in vivo.

Broadly, the IC50 is the midpoint of a concentration-inhibition curve. Low readings indicate greater potency, high ones weaker potency. Consider `CC(C)(C)COc1ccc(-n2cc(C(=O)O)c(C(F)(F)F)n2)cc1C#N`, for which, in data set [1], the IC50 was over 100 nM. Usually Tmax stands for the time from dosing to the highest level. As for `CC(C)(C)COc1ccc(-n2cc(C(=O)O)cn2)cc1C#N`, in [2], the Tmax is 0.5 h. For `Cc1nc(-c2ccc(OCC(C)C)c(C#N)c2)sc1C(=O)O`, in the data set with Mus musculus [3], the result was Active. `N#Cc1cc(-n2cc(C(=O)O)cn2)ccc1N1CCCC1` returned a half-maximal inhibitory concentration (IC50) in data set [1] of 5.7 nM. In the case of `N#Cc1cc(-n2cc(C(=O)O)cn2)ccc1N1CCCCC1`, in [1], inhibition was half-maximal at 4.2 nM (IC50). Moreover, the result in the data set on Mus musculus [3] and with Mus musculus [4] was Active. In the case of `CC(C)Oc1ccc(-n2cc(C(=O)O)c(C(F)(F)F)n2)cc1C#N`, the IC50 in [1] was over 100 nM.

As usually defined, the half-life is the time in which the quantity being followed falls by half. Lower therefore signals rapid decline. For orientation: Cmax means the maximum level reached in the sampled fluid or tissue. For orientation: AUC means the area under the concentration-time curve, a measure of exposure. A low value points to less exposure. Compound `CC(C)CN(C)c1ccc(-n2cc(C(=O)O)cn2)cc1C#N` registered an IC50 in [1] of 5.7 nM. The “inhibition (INH)” value in data set [5] was “Active”. Moreover, the outcome in the data set with Mus musculus [3] and in the data set with Mus musculus [4] was Active. Moreover, in [6], the half-life is 5 h. In data set [7], the Tmax is 1 h. This compound displayed a Cmax in data set [8] of 168 ng/mL. In the data set with Rattus norvegicus, this compound yielded an area under the curve (AUC) of 607 ng·h/mL. `Cc1nn(-c2ccc(OCC(C)(C)C)c(C#N)c2)cc1C(=O)O` displayed an IC50 in data set [1] of 23 nM. In the case of `CCCCCCCCOc1ccc(-n2cc(C(=O)O)c(C)n2)cc1C#N`, in data set [1], the IC50 was over 100 nM.

In [1], `CC(C)CNc1ccc(-n2cc(C(=O)O)cn2)cc1C#N` had an IC50 of 7.7 nM. In turn, `Cc1nn(-c2ccc(OC(C)C)c(C#N)c2)cc1C(=O)O` yielded an IC50 in [1] of 45 nM. As to `CC1CCCN1c1ccc(-n2cc(C(=O)O)cn2)cc1C#N` (stereo not given), 6.7 nM corresponded to half-maximal inhibition in data set [1] (IC50).

As to `CC(C)COc1ccc(-n2cc(C(=O)O)c(C(F)(F)F)n2)cc1C#N`, the IC50 in [1] was over 100 nM. In the case of `CN(C)c1ccc(-n2cc(C(=O)O)cn2)cc1C#N`, the IC50 in [1] stood at 10.8 nM.

Compound `CCCCCCCCOc1ccc(-n2cc(C(=O)O)c(C(F)(F)F)n2)cc1C#N` had an IC50 in data set [1] of over 100 nM.

`Cc1nn(-c2ccc(N3CCCCC3)c([N+](=O)[O-])c2)cc1C(=O)O` returned an IC50 in [1] of 59.6 nM. Take `Cc1nn(-c2ccc(N3CCCCC3)c(C#N)c2)cc1C(=O)O`: the half-inhibitory concentration (IC50) in data set [1] was found to be 13.3 nM.

Compound `Cc1nn(-c2ccc(N3CCOCC3)c(C#N)c2)cc1C(=O)O` yielded an IC50 in data set [1] of over 100 nM. On the same count and under the same terms, the value for `CCOc1ccc(-n2cc(C(=O)O)c(C)n2)cc1C#N` was over 100 nM. With `CCOc1ccc(-n2cc(C(=O)O)c(C(F)(F)F)n2)cc1C#N`, the IC50 in [1] is over 100 nM. Compound `Cc1nn(-c2ccc(N3CCOCC3)c([N+](=O)[O-])c2)cc1C(=O)O` came in with a 50% inhibitory concentration (IC50) in [1] of over 100 nM.
